Laboratory results published in patent publication US7416744B2, “Extracts, compounds and pharmaceutical compositions having anti-diabetic activity and their use” (priority 2000, dated 2008).

Legend:
male ZDF rats [1] = assay: Chronic study: water intake; format: in vivo, rat
Description: (§1) After a wash-out of 9 days after the acute dose, the rats were retained in the same treatment groups for the chronic study. […] For the pair-feeding, rats were individually matched. Pair-fed rats together with controls were dosed with water daily. Rats were dosed daily at ca 9.30 AM. The initial doses were 120 mg/kg (high dose) and 60 mg/kg (low dose).
(§2) Food and water intake were measured daily. Bodyweights were measured twice weekly. Blood samples were taken for determination of glucose, insulin and leptin. Oral glucose tolerance was also measured.
(§3) Chronic Study—The compound (1) was made up in water. Animals were dosed at the appropriate rate daily by oral gavage. Control animals received water alone at the rate of 1 ml/kg. Doses were administered at ca 10 AM each day for a total of 30 days.
(§4) On Day 7 of the dosing procedure the dose levels of groups B & D were reduced to 60 mg/kg and 30 mg/kg due to concerns over that food intake suppression might be too great. The dosing procedure remained the same and animals were dosed for a further 23 days (30 days dosing in total).
(§5) Daily food and water intake of each rat was measured by weight. Any spilled food was also collected and weighed so that an accurate estimate of food consumption could be made.
(§6) In order to determine the potential long-term effects of The compound (1), the measurement of food and water intake were continued following withdrawal of treatment.

male ZDF rats [2] = assay: Acute study: single oral dose, dose-response, food intake; format: in vivo, rat
Source text: (§7) The animals used for this study were 30 male ZDF rats and 6 male lean ZDF rats obtained from Gmi (Indianapolis, Ind., USA). The rats arrived at 6 weeks of age. The acute study was undertaken when the rats were 7 weeks old and the chronic study started when the rats were 9 weeks old.
This was a single dose, dose-response study in ZDF rats. The 30 ZDF rats were allocated to one of 5 groups so that there were 6 rats in each group. In addition there were 6 untreated lean ZDF rats. All of the rats were housed individually. The acute dose of the compound as given by oral gavage at 9.30 AM. Control ZDF and lean rats received water. Food intake was measured over the periods 9.30-16.00 (daytime) and 16.00-9.30 (night-time) for 48 hours.
Six days prior to the single dose administration the rats were allocated to individual cages and were provided with food and water ad libitum. Four days prior to dose administration, 50 g of food was placed in each cage. Then two days prior to dose administration at ca 9.30 and 16.00 hours the food remaining was weighed and replaced with a further 50 g.
Acute Study—The compound (1) was made up in water. Animals were administered with a single oral dose of The compound (1) at the appropriate rate. Control animals received water alone at the rate of 1 ml/kg. The compound (1) was administered at ca 9.30 AM.
as §5

male ZDF rats [3] = assay: Chronic study: bodyweight; format: in vivo, rat
Description: as §1, §2, §3, §4
The bodyweight of each rat was measured twice weekly throughout the course of the study.

normal rats = details: administered orally; previously shown; cited from earlier work
male ZDF rats [4] = assay: Chronic study: daily oral dosing, food intake (incl. regression after withdrawal); format: in vivo, rat
Source text: as §7, §1, §2, §3, §4, §5, §6

male ZDF rats [5] = assay: Chronic study: oral glucose tolerance test (OGTT); format: in vivo, rat; details: day 9, oral 2 g/kg glucose load
Description: Oral glucose tolerance was measured at 9 days following treatment (chronic study). Animals were fasted for 5 hours prior to the start of the OGTT. Animals were treated with glucose diluted in water at a rate of 2 g/kg ([…]). Blood samples were taken at 0, 30, 60 90 and 120 minutes. Glucose concentrations were determined by mixing blood samples with 0.38 ml of haemolysis reagent. A duplicate 20 μl aliquots of this mixture was taken for each individual sample and placed in an assay tray. To each well was added 180 μl aliquots of Trinders glucose reagent. The samples were mixed and then left for approximately 30 minutes. Samples were then analysed automatically using a SpectraMax 250 and SoftMax Pro software (Molecular devices Corporation, 1311 Orleans Drive, Sunnyvale, Calif. 94089, USA). The results were converted into glucose concentration values using Prism software, version 3.0 (GraphPad Software Inc, San Diego, Calif. USA)
The OGTT was repeated after 30 days treatment. The procedure was identical except that the pair-fed rats were each given 6 g of food at 7 AM with food being withdrawn at 9 AM for 5 hours.
Blood samples for insulin were obtained at 30 minutes prior to and 60 minutes post glucose load.
Oral glucose tolerance was determined after 8 days and after 29 days of treatment, i.e. on day 9 and day 30. Rats were fasted for 5 hours prior to receiving an oral 2 g/kg glucose load.

male ZDF rats [6] = assay: Chronic study: blood glucose concentration in fed rats; format: in vivo, rat
Description: as §1, §3, §4
(§8) For measurement of blood glucose levels, a 20 μl sample of blood was taken from the tail vein whilst animals were in a fed state. A further 100 μl sample of blood was taken and the plasma separated by centrifugation (5000 rpm, 5 minutes). Plasma samples were then analysed for insulin and leptin using rat insulin or leptin ELISA kits (Crystal Chem Inc, PO Box 60225, Chicago, Ill. 60660, USA). Blood glucose, insulin and leptin levels were determined at approximately weekly intervals.

male ZDF rats [7] = assay: Chronic study: blood glucose concentration in fasted rats; format: in vivo, rat; details: 5 h fast
Description: as §1, §3, §4, §8
Fasted glucose, insulin and leptin levels were determined in an identical manner but animals were fasted for 5 hours prior to samples being taken.

[8] = 120 mg/kg and 60 mg/kg daily oral

C/C=C(\C)C(=O)O[C@@H]1CC2C(CC=C3C[C@@H](OC4CC(OC)C(OC5CC(OC)C(OC6OC(C)C(O)C(OC)C6O)C(C)O5)C(C)O4)CC[C@@]32C)[C@@]2(O)CC[C@H](C(C)=O)[C@@]12C (stereo partly drawn) [compound (1), 3-0-[-β-D-thevetopyranosyl-(1-4)-β-D-cymaropyranosyl-(1-4)-β-D-cymaropyranosyl]-12β-0-tigloyloxy-14-hydroxy-14β-pregn-50-en-20-one]
water intake after withdrawal of the treatment (male ZDF rats [1]; after 30 days treatment, previously treated rats): rose slightly | time after withdrawal before blood glucose concentration and water intake approached that of the diabetic controls (male ZDF rats [1]; after end of chronic dosing): approximately 2 weeks | diabetic state by water intake after 66 days (male ZDF rats [1]; after withdrawal, versus untreated controls): not as diabetic as the untreated controls | time for water intake to be reduced to the level in the lean controls (male ZDF rats [1]; high dose (120 or 60 mg/kg/day) or low dose (60 or 30 mg/kg/day), maintained throughout dosing): ≤ 4 days | food intake for the period 24-48 hours past a single oral dose (male ZDF rats [2]; 20-160 mg/kg, daytime and night-time): reduced (both daytime and night-time) in a dose-related manner | food intake in the second day (significance) (male ZDF rats [2]; single oral dose 80 mg/kg): significant | food intake in the second day (significance) (male ZDF rats [2]; single oral dose 160 mg/kg): significant | night-time food intake compared with lean rats (male ZDF rats [2]; single oral dose 160 mg/kg): the same as the lean rats | food intake in the first 24 hours (significance) (male ZDF rats [2]; single oral dose 160 mg/kg (only dose significant)): Significant reduction | onset of effect on food intake (male ZDF rats [2]; single oral dose given at 09.30): slow in onset | daytime food intake over the 7 hour period post-dosing (male ZDF rats [2]; single oral dose, dose range 20-160 mg/kg): no significant effect | night-time food intake (male ZDF rats [2]; single oral dose, dose range 20-160 mg/kg, first night): dose-related reduction | duration of response to a single dose (male ZDF rats [2]; single oral dose, effects seen during second day): long | growth rate after 14 days (male ZDF rats [3]; chronic dosing): higher growth rate than the control ZDF rats | growth rate over the first 3 weeks of treatment relative to ZDF controls (male ZDF rats [3]; chronic dosing, both doses): dose-related decrease in the growth rate | bodyweight plateau level (male ZDF rats [3]; chronic study, ZDF controls plateaued at 360-370 g): more than 400 g | bodyweight by the end of the treatment period versus ZDF controls (male ZDF rats [3]; high dose (120 then 60 mg/kg)): the same weight | bodyweight by the end of the treatment period versus ZDF controls (male ZDF rats [3]; low dose (60 then 30 mg/kg)): heavier than the controls | body weight about 2 weeks after withdrawal versus ZDF controls (male ZDF rats [3]; previously treated rats): significantly greater | food intake in normal rats (normal rats): reduce food intake | daytime food intake over the first 7 days (male ZDF rats [4]; [8]): increasing effect | time until full effect on night-time food intake apparent (male ZDF rats [4]; [8]): 2 days | appetite suppression, overall conclusion (male ZDF rats [4]; ZDF male rats): powerful appetite suppressant | effectiveness on food intake reduction over the period 7-14 days (male ZDF rats [4]; after dose reduction to 60 and 30 mg/kg): small reduction in the effectiveness | rebound hyperphagia on withdrawal of the drug (male ZDF rats [4]; after end of chronic dosing): did not lead to a rebound hyperphagia | reduction in food intake after 7 days (male ZDF rats [4]; both dose levels (120 and 60 mg/kg daily oral)): around 50% | food intake after 14 days (male ZDF rats [4]; both groups, 60 and 30 mg/kg): stabilised | pharmacological tolerance to food intake reduction (male ZDF rats [4]; chronic dosing): no indication of tolerance | food intake over the treatment period (male ZDF rats [4]; chronic dosing, overall): marked reduction | food intake after withdrawal of drug treatment, relative to control ZDF rats (male ZDF rats [4]; monitored for a further 17 days after withdrawal): only a small loss of efficacy | oral glucose tolerance (male ZDF rats [5]): only marginally impaired relative to lean | treatment of established diabetes, overall conclusion (male ZDF rats [6]; ZDF male rats): effective treatment | blood glucose concentration in fed rats (male ZDF rats [6]; after 7 days of treatment): reduction in the blood glucose concentration from the diabetic level to a similar concentration as in lean littermates | blood glucose concentration in fed rats after withdrawal of therapy (male ZDF rats [6]; after withdrawal): steadily increased | glycaemic status (plasma glucose, glucose tolerance, water intake) (male ZDF rats [6]; chronic study, overall): substantial improvements in glycaemic status | glycaemia in fed rats during therapy (male ZDF rats [6]; until withdrawal of therapy): Normal glycaemia was maintained | fasted blood glucose concentration versus ZDF controls (male ZDF rats [7]; after 8 days treatment): significantly lower | fasted blood glucose concentration versus lean rats (male ZDF rats [7]; after 8 days treatment): did not differ significantly | fasted blood glucose concentration versus ZDF controls (male ZDF rats [7]; after 29 days treatment): significantly lower | fasted blood glucose concentration versus lean rats (male ZDF rats [7]; after 29 days treatment): did not differ significantly
